Experimental findings from ChEMBL document CHEMBL1137911, “Synthesis and evaluation of 4-triazolylflavans as new aromatase inhibitors” (Bioorg Med Chem Lett, 2004) are described below.

Series [1] deals with T1, Aromatase (Homo sapiens, UniProt P11511).
T1 sequence (P11511 whole entry): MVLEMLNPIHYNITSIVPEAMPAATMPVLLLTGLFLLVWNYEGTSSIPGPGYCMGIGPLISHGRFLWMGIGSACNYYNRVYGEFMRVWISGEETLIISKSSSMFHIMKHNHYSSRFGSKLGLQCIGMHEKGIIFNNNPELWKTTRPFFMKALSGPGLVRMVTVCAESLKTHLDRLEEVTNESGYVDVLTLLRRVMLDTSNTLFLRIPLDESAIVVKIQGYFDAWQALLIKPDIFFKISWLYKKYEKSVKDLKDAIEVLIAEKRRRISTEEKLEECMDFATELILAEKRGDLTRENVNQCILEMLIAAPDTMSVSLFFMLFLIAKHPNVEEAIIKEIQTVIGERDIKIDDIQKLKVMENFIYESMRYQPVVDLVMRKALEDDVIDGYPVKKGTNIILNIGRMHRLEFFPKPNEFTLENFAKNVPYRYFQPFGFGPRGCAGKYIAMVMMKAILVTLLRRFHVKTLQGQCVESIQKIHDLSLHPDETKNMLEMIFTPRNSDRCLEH
The series can be described thus: Relative potency for inhibition of aromatase binding compared to aminoglutethimide.

Series [2] addresses T1, Aromatase. The series can be described thus: In vitro inhibition of [1,2,6,7-3H]androstenedione binding to Aromatase of human placental microsomes.

Structures are written as SMILES.

Take `COc1ccc2c(c1)OC(c1ccccc1)CC2n1cnnc1` (stereo not drawn): the “Relative Potency” value in series [1] amounted to 0.16. The compound further showed an IC50 in series [2] of 31.6 µM.

For `COc1ccc2c(c1)OC(c1ccccc1)CC2n1cncn1` (stereo not drawn), the “Relative Potency” value in series [1] is reported as 3.7. The IC50 in series [2] amounted to 1.4 µM.

Take `Oc1ccc2c(c1)OC(c1ccccc1)CC2n1cncn1` (stereo not drawn): in series [1], the “Relative Potency” value is 12.1. This compound had an IC50 in series [2] of 0.43 µM.

Regarding `Oc1ccc2c(c1)OC(c1ccccc1)CC2n1ccnc1` (stereo not drawn), the “Relative Potency” value in series [1] was 126.8. This compound also came in with a half-maximal inhibitory concentration (IC50) in series [2] of 0.04 µM.
